Results on one compound are retold here after patent US8778985B2, “Inhibiting amyloid-beta peptide/rage interaction at the blood-brain barrier” (The University of Rochester, priority 2006, dated 2014).

Test [1] has as its system RAGE-transfected CHO cells. Description: Thiobarbituric acid reactive substance (TBARS) generation (Aβ/RAGE-induced oxidant stress) in RAGE-transfected CHO cells. The settings on record: 1 μM Aβ40; FPS2 at 50 nM or 500 nM. The class given is cell-based.
Test [2] has as its system APPsw+/− mice. Description: Memory testing: novel object location and novel object recognition, chronic treatment of APPsw+/− mice. The class given is in vivo. The settings on record: 1 mg/kg per day i.p. for two months from 8 months of age. The procedure:
(A) Percent increase in cerebral blood flow (CBF) in response to brain activation in mice treated with vehicle (open bar) or FPS2 (closed bar). (B-C) novel object location (B) and novel object recognition (C) expressed as percent exploratory preference in APPsw^+/− mice treated with vehicle (open bar) or FPS2 (closed bar). FPS2 (1 mg/kg per day) was intraperitoneally administered for two months beginning at the age of 8 months old mice. Values are means±s.e.m, n=5-6 per group.
(§1) APPsw^+/− mice were treated with FPS2 (1 mg/kg) or with vehicle daily by intraperitoneal injection for two months starting at 8 months old. At the end of the treatment period functional changes in cerebral blood flow (CBF) to brain activation, and memory tests were determined. Brain and plasma Aβ levels were also determined in FPS2 and vehicle treated mice. […]
(§2) Compounds were synthesized in parallel using semiautomated chemical reactions. […] Purity was assessed by reverse-phase gradient HPLC. […] After two months of treatment, (i) the cerebral blood flow response to brain activation (whisker stimulation) was measured and (ii) behavioral tests including operant learning, novel object location (NOL), and novel object recognition (NOR) were performed. After these functional tests, the mice were sacrificed and their brains analyzed for Aβ40, Aβ42, and amyloid levels. • CBF response to brain activation. […]

Test [3] deals with APPsw+/− mice. Description: Resting CBF by laser-doppler flowmetry, acute FPS2 treatment of APPsw+/− mice. The test is classed as in vivo. The settings on record: 1 mg/kg intravenous bolus, 7-9 months old mice. The procedure:
Cerebral blood flow changes expressed as a percentage of baseline recorded over a 90 min period in mice administered FPS2 (filled triangle) or vehicle (filled square). FPS2 (1 mg/kg) was administered intravenously (arrow) as a bolus in 7-9 months old mice. Values are means±s.e.m, n=3 per group.
as §1
as §2, with “activation. The CBF response to vibrissal stimulation in anesthetized APPsw^+/− mice was measured by using laser-doppler flowmetry (Transonic Systems, BLF 21 D).” for “activation.”

SMILES strings stand for the structures.

As to `CC(CC(=O)NCCCN(C(=O)c1cc([N+](=O)[O-])cc([N+](=O)[O-])c1)c1ccccc1)CC(C)(C)C` (centres unmarked) [FPS2, 3,5-dinitro-N-phenyl-N-[3-[(3,5,5-trimethyl-1-oxohexyl)amino]propyl]-(9Cl)-benzamide], the TBARS generation entry in test [1] is reported as “inhibited”. For the same compound, in the test with APPsw+/− mice [2], the “memory, novel object location” value was “significantly increased” and the “memory, novel object recognition” value is listed as “significantly increased”. For the same compound, in the test on APPsw+/− mice [3], the “time of peak of resting CBF increase” value is 25 to 30 min and the “transient increase of resting CBF” value is reported as “about 35%”.
